Patent US7785875B2, “Polynucleotide encoding HCV epitopes which can bind to various HLA supertypes, immunogenic composition comprising same and method of inducing an HCV-specific immune response using same” (priority 2004, dated 2010)

Tested on: PBMCs derived from HCV-infected patients
Assay: Ex vivo IFN-γ ELISPOT assay
Format: cell-based, human
Settings: for responsiveness of positive reaction: positive = 30 or more SFCs per 2×10^5 PBMCs; for number of HLA types the epitope was positive to: of 9 HLA types found in the patients (A2, A24, A26, A3, B7, B15, B27, B44, B51)

Substance	responsiveness of positive reaction (HLA-A2 type patients)	responsiveness of positive reaction (HLA-A3 type patients)	responsiveness of positive reaction (HLA-A24 type patients)	responsiveness of positive reaction (HLA-A26 type patients)	Number of patients showing positive response/Number of patients having specific MHC type (HLA-A molecule A2)	Number of patients showing positive response/Number of patients having specific MHC type (HLA-A molecule A3)	Number of patients showing positive response/Number of patients having specific MHC type (HLA-A molecule A24)	Number of patients showing positive response/Number of patients having specific MHC type (HLA-A molecule A26)	responsiveness of positive reaction (HLA-B7 type patients)	responsiveness of positive reaction (HLA-B15 type patients)	responsiveness of positive reaction (HLA-B27 type patients)	responsiveness of positive reaction (HLA-B44 type patients)	responsiveness of positive reaction (HLA-B51 type patients)	Number of patients showing positive response/Number of patients having specific MHC type (HLA-B molecule B7)	Number of patients showing positive response/Number of patients having specific MHC type (HLA-B molecule B15)	Number of patients showing positive response/Number of patients having specific MHC type (HLA-B molecule B27)	Number of patients showing positive response/Number of patients having specific MHC type (HLA-B molecule B44)	Number of patients showing positive response/Number of patients having specific MHC type (HLA-B molecule B51)	number of HLA types the epitope was positive to
C1: HCV epitope peptide of 9 amino acids, NS3, region 1338 (TAGARLVVL) [Peptide C1]	11.5%	10.0%	4.18%	0%	3/26	3/30	1/24	0/1	11.7%	0%	0%	22.2%	20.0%	2/17	0/9	0/4	2/9	2/10	6
L6: HCV epitope peptide of 9 amino acids, E2, region 628 (KVRMYVGGV) [Peptide L6]	15.3%	10.0%	8.3%	0%	4/26	3/30	2/24	0/1	11.7%	11.1%	0%	11.1%	30.0%	2/17	1/9	0/4	1/9	3/10	7
L2: HCV epitope peptide of 9 amino acids, E2, region 632 (YVGGVEHRL) [Peptide L2]	15.3%	13.3%	12.5%	0%	4/26	4/30	3/24	0/1	5.8%	22.2%	25.0%	11.1%	20.0%	1/17	2/9	1/4	1/9	2/10	8
L7: HCV epitope peptide of 9 amino acids, NS2, region 883 (ELIFDITKL) [Peptide L7]	19.2%	10.0%	12.5%	0%	5/26	3/30	3/24	0/1	17.6%	22.2%	25.0%	11.1%	20.0%	3/17	2/9	1/4	1/9	2/10	8
C4: HCV epitope peptide of 9 amino acids, NS2, region 894 (AILGPLMVF) [Peptide C4]	26.3%	23.5%	29.1%	0%	7/26	7/30	7/24	0/1	29.1%	44.4%	0%	22.2%	50.0%	5/17	4/9	0/4	2/9	5/10	7
L1: HCV epitope peptide of 9 amino acids, Core, region 118 (NLGKVIDTL) [Peptide L1]	11.5%	10.0%	8.3%	0%	3/26	3/30	2/24	0/1	11.7%	0%	0%	33.3%	10.0%	2/17	0/9	0/4	3/9	1/10	6
